Measured values taken from ChEMBL document CHEMBL4428075, “New antiproliferative 7-(4-(N-substituted carbamoylmethyl)piperazin-1-yl) derivatives of ciprofloxacin induce cell cycle arrest at G2/M phase” (Bioorg Med Chem, 2016).

Columns and labels:
DU-145 = assay: Antiproliferative activity against human DU145 cells at 10^-5 M after 48 hrs by SRB assay; format: functional; conditions: DU-145, 48 h, read-out: GI
CCRF-CEM = assay: Antiproliferative activity against human CCRF-CEM cells at 10^-5 M after 48 hrs by SRB assay; format: functional; conditions: read-out: GI
MOLT-4 = assay: Antiproliferative activity against human MOLT4 cells at 10^-5 M after 48 hrs by SRB assay; format: functional; conditions: MOLT-4, 48 h, read-out: GI
HCT-15 = assay: Antiproliferative activity against human HCT15 cells at 10^-5 M after 48 hrs by SRB assay; format: functional; conditions: HCT-15, 48 h, read-out: GI
A549 [1] = assay: Antiproliferative activity against human A549 cells after 24 hrs by BrdU incorporation assay; format: functional, cell-based; conditions: A549, 24 h
NCI-H460 = assay: Antiproliferative activity against human NCI-H460 cells at 10^-5 M after 48 hrs by SRB assay; format: functional; conditions: NCI-H460, 48 h, read-out: GI
Malme-3M = assay: Antiproliferative activity against human MALME-3M cells at 10^-5 M after 48 hrs by SRB assay; format: functional; conditions: read-out: GI
SNB-75 = assay: Antiproliferative activity against human SNB75 cells at 10^-5 M after 48 hrs by SRB assay; format: functional; conditions: SNB-75, 48 h, read-out: GI
M14 = assay: Antiproliferative activity against human M14 cells at 10^-5 M after 48 hrs by SRB assay; format: functional; conditions: M14, 48 h, read-out: GI
SF-268 = assay: Antiproliferative activity against human SF268 cells at 10^-5 M after 48 hrs by SRB assay; format: functional; conditions: SF-268, 48 h, read-out: GI
COLO 205 = assay: Antiproliferative activity against human COLO205 cells at 10^-5 M after 48 hrs by SRB assay; format: functional; conditions: COLO 205, 48 h, read-out: GI
RPMI-8226 = assay: Antiproliferative activity against human RPMI8226 cells at 10^-5 M after 48 hrs by SRB assay; format: functional; conditions: RPMI-8226, 48 h, read-out: GI
UACC-62 = assay: Antiproliferative activity against human UACC62 cells at 10^-5 M after 48 hrs by SRB assay; format: functional; conditions: UACC-62, 48 h, read-out: GI
EKVX = assay: Antiproliferative activity against human EKVX cells at 10^-5 M after 48 hrs by SRB assay; format: functional; conditions: read-out: GI
OVCAR-4 = assay: Antiproliferative activity against human OVCAR4 cells at 10^-5 M after 48 hrs by SRB assay; format: functional; conditions: OVCAR-4, 48 h, read-out: GI
HOP-62 = assay: Antiproliferative activity against human HOP62 cells at 10^-5 M after 48 hrs by SRB assay; format: functional; conditions: HOP-62, 48 h, read-out: GI
IGROV-1 = assay: Antiproliferative activity against human IGROV1 cells at 10^-5 M after 48 hrs by SRB assay; format: functional; conditions: IGROV-1, 48 h, read-out: GI
NCI/ADR-RES = assay: Antiproliferative activity against human NCI-ADR-RES cells at 10^-5 M after 48 hrs by SRB assay; format: functional; conditions: read-out: GI
NCI-H23 = assay: Antiproliferative activity against human NCI-H23 cells at 10^-5 M after 48 hrs by SRB assay; format: functional; conditions: NCI-H23, 48 h, read-out: GI
RXF 393 = assay: Antiproliferative activity against human RXF393 cells at 10^-5 M after 48 hrs by SRB assay; format: functional; conditions: RXF 393, 48 h, read-out: GI
786-0 = assay: Antiproliferative activity against human 786-0 cells at 10^-5 M after 48 hrs by SRB assay; format: functional; conditions: 786-0, 48 h, read-out: GI
OVCAR-3 = assay: Antiproliferative activity against human OVCAR3 cells at 10^-5 M after 48 hrs by SRB assay; format: functional; conditions: OVCAR-3, 48 h, read-out: GI
NCI-H322M = assay: Antiproliferative activity against human NCI-H322M cells at 10^-5 M after 48 hrs by SRB assay; format: functional; conditions: read-out: GI
OVCAR-5 = assay: Antiproliferative activity against human OVCAR5 cells at 10^-5 M after 48 hrs by SRB assay; format: functional; conditions: OVCAR-5, 48 h, read-out: GI
SK-OV-3 = assay: Antiproliferative activity against human SKOV3 cells at 10^-5 M after 48 hrs by SRB assay; format: functional; conditions: SK-OV-3, 48 h, read-out: GI
HCC 2998 = assay: Antiproliferative activity against human HCC2998 cells at 10^-5 M after 48 hrs by SRB assay; format: functional; conditions: HCC 2998, 48 h, read-out: GI
NCI-H522 = assay: Antiproliferative activity against human NCI-H522 cells at 10^-5 M after 48 hrs by SRB assay; format: functional; conditions: NCI-H522, 48 h, read-out: GI
A549 [2] = assay: Antiproliferative activity against human A549 cells at 10^-5 M after 48 hrs by SRB assay; format: functional; conditions: A549, 48 h, read-out: GI
UACC-257 = assay: Antiproliferative activity against human UACC257 cells at 10^-5 M after 48 hrs by SRB assay; format: functional; conditions: UACC-257, 48 h, read-out: GI
SN12C = assay: Antiproliferative activity against human SN12C cells at 10^-5 M after 48 hrs by SRB assay; format: functional; conditions: read-out: GI
SK-MEL-2 = assay: Antiproliferative activity against human SK-MEL-2 cells at 10^-5 M after 48 hrs by SRB assay; format: functional; conditions: SK-MEL-2, 48 h, read-out: GI
U-251 = assay: Antiproliferative activity against human U251 cells at 10^-5 M after 48 hrs by SRB assay; format: functional; conditions: U-251, 48 h, read-out: GI
SF-539 = assay: Antiproliferative activity against human SF539 cells at 10^-5 M after 48 hrs by SRB assay; format: functional; conditions: SF-539, 48 h, read-out: GI
SK-MEL-5 = assay: Antiproliferative activity against human SK-MEL-5 cells at 10^-5 M after 48 hrs by SRB assay; format: functional; conditions: SK-MEL-5, 48 h, read-out: GI
SF-295 = assay: Antiproliferative activity against human SF295 cells at 10^-5 M after 48 hrs by SRB assay; format: functional; conditions: SF-295, 48 h, read-out: GI
A498 = assay: Antiproliferative activity against human A498 cells at 10^-5 M after 48 hrs by SRB assay; format: functional; conditions: A498, 48 h, read-out: GI
MDA-MB-468 = assay: Antiproliferative activity against human MDA-MB-468 cells at 10^-5 M after 48 hrs by SRB assay; format: functional; conditions: MDA-MB-468, 48 h, read-out: GI
SW-620 = assay: Antiproliferative activity against human SW620 cells at 10^-5 M after 48 hrs by SRB assay; format: functional; conditions: SW-620, 48 h, read-out: GI
PC-3 = assay: Antiproliferative activity against human PC3 cells at 10^-5 M after 48 hrs by SRB assay; format: functional; conditions: PC-3, 48 h, read-out: GI

O=C(CN1CCN(c2cc3c(cc2F)c(=O)c(C(=O)O)cn3C2CC2)CC1)Nc1ccc(Cl)cc1
inhibition of growth at 10 µM (DU-145): 0.9% | inhibition of growth at 10 µM (CCRF-CEM): 23.6% | inhibition of growth at 10 µM (MOLT-4): 3.53% | inhibition of growth at 10 µM (HCT-15): 17% | IC50 (A549 [1]): 14.8 µM | inhibition of growth at 10 µM (NCI-H460): 12.1% | inhibition of growth at 10 µM (Malme-3M): 8.25% | inhibition of growth at 10 µM (SNB-75): 20.3% | inhibition of growth at 10 µM (M14): 18.2% | inhibition of growth at 10 µM (SF-268): 8.82% | inhibition of growth at 10 µM (COLO 205): 0.11% | inhibition of growth at 10 µM (RPMI-8226): 27.8% | inhibition of growth at 10 µM (UACC-62): 36.4% | inhibition of growth at 10 µM (EKVX): 6.62% | inhibition of growth at 10 µM (OVCAR-4): 14.7% | inhibition of growth at 10 µM (HOP-62): 28.3% | inhibition of growth at 10 µM (IGROV-1): 6.22% | inhibition of growth at 10 µM (NCI/ADR-RES): 0% | inhibition of growth at 10 µM (NCI-H23): 5.51% | inhibition of growth at 10 µM (RXF 393): 25.3% | inhibition of growth at 10 µM (786-0): 29.9% | inhibition of growth at 10 µM (OVCAR-3): 7.56% | inhibition of growth at 10 µM (NCI-H322M): 47.2% | inhibition of growth at 10 µM (OVCAR-5): 0% | inhibition of growth at 10 µM (SK-OV-3): 36.6% | inhibition of growth at 10 µM (HCC 2998): 14.2% | inhibition of growth at 10 µM (NCI-H522): 114% | inhibition of growth at 10 µM (A549 [2]): 30.8% | inhibition of growth at 10 µM (UACC-257): 43% | inhibition of growth at 10 µM (SN12C): 9.89% | inhibition of growth at 10 µM (SK-MEL-2): 5.16% | inhibition of growth at 10 µM (U-251): 55.8% | inhibition of growth at 10 µM (SF-539): 13.1% | inhibition of growth at 10 µM (SK-MEL-5): 28.9% | inhibition of growth at 10 µM (SF-295): 12.1% | inhibition of growth at 10 µM (A498): 31.4% | inhibition of growth at 10 µM (MDA-MB-468): 14% | inhibition of growth at 10 µM (SW-620): 0% | inhibition of growth at 10 µM (PC-3): 19.9%
